Reference: US12227488B2, “Small molecule degraders of Helios and methods of use” (DANA-FARBER CANCER INSTITUTE, INC., priority 2018, dated 2025)

Key:
CRBN and Helios (IKZF2) = target: T1, CRBN and Helios (IKZF2) (Homo sapiens, UniProt Q96SW2+Q9UKS7); assay: TR-FRET dimerization assay (CRBN-IKZF2 ternary complex formation); assay type: binding; details: n=1
T1 construct: His (N); Strep (N)
How it was run: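 Compound-induced IKZF2 recruitment to CRBN was read as the 520/490 nm TR-FRET ratio after 15 min at rt. The mix held biotinylated IKZF2, BODIPY-labeled CRBN bound to DDB1 lacking the BPB propeller, tracer Tb-streptavidin and compound titrations; n=1, from ≥3 technical replicates per well.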

GSPT1 = GSPT1 (Homo sapiens, UniProt P15170+Q96SW2); assay: Cellular degradation assay, eGFP-GSPT1 fusion with mCherry reporter in Flp-In 293 cells; assay type: cell-based; design: expressed in transfected cells; host or cells: Flp-In 293; details: 5 h incubation, n=1
How it was run: (§1)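 DC50,5 h derived by variable-slope nonlinear fit of the per-well ratio of GFP-positive to mCherry-positive cells, imaged after 5 h compound exposure at 0.5% DMSO.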

SALL4 ZNF1-2 = target: T2, SALL4 ZNF1-2 (Homo sapiens, UniProt Q96SW2+Q9UJQ4); assay: Cellular degradation assay, eGFP-SALL4 ZnF1-2 fusion with mCherry reporter in Flp-In 293 cells; assay type: cell-based; details: 5 h incubation, n=1
T2 construct: IKZF1Δ, IKZF2Δ, GSPT1 and SALL4 ZnF1-2 were subcloned; expressed in transfected cells; host or cells: Flp-In 293
Experimental: IKZF1Δ, IKZF2Δ, GSPT1 and SALL4 ZnF1-2 were subcloned into mammalian pcDNA5/FRT Vector (Ampicillin and Hygromycin B resistant) modified to contain MCS-eGFP-P2A-mCherry. Stable cell lines expressing eGFP-protein fusion and mCherry reporter were generated using Flp-In™ 293 system. Plasmid (0.3 μg) and pOG44 (4.7 μg) DNA were preincubated in 100 μL of Opti-MEM® I (Gibco®, Life Technologies™) media containing 0.05 mg/mL Lipofectamine® 2000 (Invitrogen™) for 20 min and added to Flp-In™ 293 cells containing 1.9 ml of DMEM media (Gibco®, Life Technologies™) per well in a 6-well plate format (Falcon, 353046). Cells were propagated after 48 h and transferred into a 10 cm^2 plate (Corning, 430165) in DMEM media containing 50 μg/mL of Hygromycin B (REF 10687010, Invitrogen™) as a selection marker. Following 2-3 passage cycle, FACS (FACSAria™ II, BD) was used to enrich for cells expressing eGFP and mCherry. Cells stably expressing the IKZF1Δ, IKZF2Δ, GSPT1 or SALL4 Znf1-2 GFP fusions with mCherry reporter were seeded at 30-50% confluency in 384-well plates with 50 μL FluoroBrite™ DMEM media (Thermo Fisher Scientific, A18967) containing 10% FBS per well a day before compound treatment. Compound titrations were dispensed using a D300e Digital Dispenser (HP), normalized to 0.5% DMSO, and incubated with cells for 5 hours. The assay plate was imaged immediately using an Acumen® High Content Imager (TTP Labtech) with 488 nm and 561 nm lasers in […] grid per well format.
The resulting images were analyzed using CellProfiler™. A series of image analysis steps (‘image analysis pipeline’) was constructed. First, the red and green channels were aligned and cropped to target the middle of each well (to avoid analysis of heavily clumped cells at the edges), and a background illumination function was calculated for both red and green channels of each well individually and subtracted to correct for illumination variations across the 384-well plate from various sources of error. An additional step was then applied to the green channel to suppress the analysis of large auto fluorescent artifacts and enhance the analysis of cell specific fluorescence by way of selecting for objects under a given size, 30 A.U., and with a given shape, speckles. mCherry-positive cells were then identified in the red channel filtering for objects between 8-60 pixels in diameter and using intensity to distinguish between clumped objects. The green channel was then segmented into GFP positive and negative areas and objects were labeled as GFP positive if at least 40% of it overlapped with a GFP positive area. The fraction of GFP-positive cells/mCherry-positive cells in each well was then calculated, and the green and red images were rescaled for visualization.

IKZF2 = assay: Cellular degradation assay, eGFP-IKZF2Δ fusion with mCherry reporter in Flp-In 293 cells; assay type: cell-based; details: 5 h incubation, n=1
How it was run: as §1

IKZF1 = target: T3, IKZF1 (Homo sapiens, UniProt Q13422); assay: Cellular degradation assay, eGFP-IKZF1Δ fusion with mCherry reporter in Flp-In 293 cells; assay type: cell-based; details: 5 h incubation, n=1
T3 construct: expressed in transfected cells; host or cells: Flp-In 293
How it was run: as §1

[1] = compound concentration 6.6667E−05
[2] = compound concentration 6.6667E−06
[3] = compound concentration 6.6667E−07 (667 nM)
[4] = compound concentration 2.00E−05
[5] = compound concentration 2.00E−06
[6] = compound concentration 2.00E−07

Sequence of GSPT1 (P15170 whole entry, the tested form may be a part): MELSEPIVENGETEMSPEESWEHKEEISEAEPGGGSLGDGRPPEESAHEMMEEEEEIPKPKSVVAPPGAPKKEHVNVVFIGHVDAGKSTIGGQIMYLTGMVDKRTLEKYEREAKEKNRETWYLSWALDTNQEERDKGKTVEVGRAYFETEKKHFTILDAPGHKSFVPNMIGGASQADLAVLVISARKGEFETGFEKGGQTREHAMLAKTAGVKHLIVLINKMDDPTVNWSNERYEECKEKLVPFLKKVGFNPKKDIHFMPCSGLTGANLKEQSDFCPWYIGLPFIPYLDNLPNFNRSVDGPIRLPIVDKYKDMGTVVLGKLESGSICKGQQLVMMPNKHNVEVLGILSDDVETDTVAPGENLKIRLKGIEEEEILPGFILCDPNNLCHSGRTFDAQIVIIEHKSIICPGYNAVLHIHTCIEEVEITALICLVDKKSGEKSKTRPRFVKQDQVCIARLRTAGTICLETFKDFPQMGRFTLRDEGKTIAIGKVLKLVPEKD
Sequence of GSPT1 (Q96SW2 whole entry, the tested form may be a part): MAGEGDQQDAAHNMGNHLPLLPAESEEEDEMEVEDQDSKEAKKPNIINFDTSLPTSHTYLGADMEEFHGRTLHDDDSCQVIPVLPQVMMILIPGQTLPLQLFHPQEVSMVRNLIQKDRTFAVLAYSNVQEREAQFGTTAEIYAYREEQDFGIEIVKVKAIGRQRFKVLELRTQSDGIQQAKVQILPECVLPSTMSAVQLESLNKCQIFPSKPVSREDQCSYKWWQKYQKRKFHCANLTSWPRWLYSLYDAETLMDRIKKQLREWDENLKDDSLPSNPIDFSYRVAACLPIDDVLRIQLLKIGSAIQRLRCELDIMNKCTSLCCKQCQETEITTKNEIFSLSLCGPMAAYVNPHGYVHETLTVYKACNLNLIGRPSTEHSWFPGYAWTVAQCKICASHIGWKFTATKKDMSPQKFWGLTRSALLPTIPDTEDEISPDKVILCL
Sequence of GSPT1 (Q16531 whole entry partner, the tested form may be a part): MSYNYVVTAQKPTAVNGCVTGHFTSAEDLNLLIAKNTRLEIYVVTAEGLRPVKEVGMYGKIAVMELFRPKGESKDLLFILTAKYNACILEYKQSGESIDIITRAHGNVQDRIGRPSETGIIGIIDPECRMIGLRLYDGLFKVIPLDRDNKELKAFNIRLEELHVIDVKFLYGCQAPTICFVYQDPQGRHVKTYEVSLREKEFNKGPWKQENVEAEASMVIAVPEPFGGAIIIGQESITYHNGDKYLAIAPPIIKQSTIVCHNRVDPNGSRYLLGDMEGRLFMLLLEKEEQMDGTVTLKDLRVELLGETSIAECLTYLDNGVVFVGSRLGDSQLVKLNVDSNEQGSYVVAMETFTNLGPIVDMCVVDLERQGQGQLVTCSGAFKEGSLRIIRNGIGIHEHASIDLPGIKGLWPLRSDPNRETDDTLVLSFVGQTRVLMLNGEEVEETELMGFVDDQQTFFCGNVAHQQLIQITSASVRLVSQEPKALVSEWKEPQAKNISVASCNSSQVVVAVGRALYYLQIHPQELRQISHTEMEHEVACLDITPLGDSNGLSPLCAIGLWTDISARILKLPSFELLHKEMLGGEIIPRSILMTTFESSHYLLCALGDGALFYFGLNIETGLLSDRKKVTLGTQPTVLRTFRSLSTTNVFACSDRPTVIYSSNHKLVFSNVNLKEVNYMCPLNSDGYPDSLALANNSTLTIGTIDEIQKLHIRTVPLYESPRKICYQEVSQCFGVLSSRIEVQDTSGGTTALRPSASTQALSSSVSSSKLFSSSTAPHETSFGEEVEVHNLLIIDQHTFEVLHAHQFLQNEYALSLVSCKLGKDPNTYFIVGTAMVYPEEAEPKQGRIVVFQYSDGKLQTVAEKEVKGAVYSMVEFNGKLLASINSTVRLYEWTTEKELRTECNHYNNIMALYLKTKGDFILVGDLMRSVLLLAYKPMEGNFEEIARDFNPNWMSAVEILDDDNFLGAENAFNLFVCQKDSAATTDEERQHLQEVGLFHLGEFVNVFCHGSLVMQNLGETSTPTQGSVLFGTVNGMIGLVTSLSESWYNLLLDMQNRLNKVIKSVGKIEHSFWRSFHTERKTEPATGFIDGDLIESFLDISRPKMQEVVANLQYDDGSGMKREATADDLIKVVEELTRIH
T3 sequence (Q13422 83-213 isoform Q13422-7 limits assumed): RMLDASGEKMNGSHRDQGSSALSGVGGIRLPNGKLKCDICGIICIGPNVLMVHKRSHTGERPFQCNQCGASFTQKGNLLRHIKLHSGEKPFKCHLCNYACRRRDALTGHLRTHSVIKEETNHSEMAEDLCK
T3 sequence (Q96SW2 whole entry partner, the tested form may be a part): as the sequence (Q96SW2 whole entry, the tested form may be a part) above
T3 sequence (Q16531 2-1140 partner limits assumed): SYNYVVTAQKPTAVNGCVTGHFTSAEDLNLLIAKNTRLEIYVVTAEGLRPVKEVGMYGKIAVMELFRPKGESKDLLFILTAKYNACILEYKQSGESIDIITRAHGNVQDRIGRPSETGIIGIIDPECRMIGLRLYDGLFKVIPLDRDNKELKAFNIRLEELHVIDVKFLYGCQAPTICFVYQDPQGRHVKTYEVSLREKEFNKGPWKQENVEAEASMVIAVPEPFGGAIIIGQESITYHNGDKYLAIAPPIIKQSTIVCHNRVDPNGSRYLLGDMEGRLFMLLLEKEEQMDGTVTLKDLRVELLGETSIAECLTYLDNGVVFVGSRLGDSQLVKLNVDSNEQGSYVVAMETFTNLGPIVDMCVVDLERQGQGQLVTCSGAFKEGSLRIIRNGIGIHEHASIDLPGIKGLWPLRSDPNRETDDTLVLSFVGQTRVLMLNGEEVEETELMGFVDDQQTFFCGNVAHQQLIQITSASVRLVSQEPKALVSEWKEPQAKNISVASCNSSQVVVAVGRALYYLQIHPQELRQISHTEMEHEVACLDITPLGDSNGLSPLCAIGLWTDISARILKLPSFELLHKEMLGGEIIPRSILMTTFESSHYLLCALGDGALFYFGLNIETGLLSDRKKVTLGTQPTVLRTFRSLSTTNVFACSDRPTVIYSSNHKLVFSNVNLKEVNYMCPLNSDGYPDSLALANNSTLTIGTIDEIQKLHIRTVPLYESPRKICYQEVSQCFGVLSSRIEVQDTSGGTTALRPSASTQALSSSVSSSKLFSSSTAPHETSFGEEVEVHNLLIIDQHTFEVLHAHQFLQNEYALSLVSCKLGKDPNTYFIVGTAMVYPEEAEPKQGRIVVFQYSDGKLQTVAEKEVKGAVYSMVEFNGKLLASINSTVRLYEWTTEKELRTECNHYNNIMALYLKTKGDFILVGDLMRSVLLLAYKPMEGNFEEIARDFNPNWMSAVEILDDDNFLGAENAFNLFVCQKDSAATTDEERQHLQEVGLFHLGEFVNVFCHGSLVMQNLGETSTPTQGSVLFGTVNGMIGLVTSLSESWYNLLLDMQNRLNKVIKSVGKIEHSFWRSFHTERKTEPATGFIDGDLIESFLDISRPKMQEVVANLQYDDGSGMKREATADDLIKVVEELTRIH
T1 sequence (Q96SW2 whole entry): as the sequence (Q96SW2 whole entry, the tested form may be a part) above
T1 sequence (Q9UKS7 whole entry): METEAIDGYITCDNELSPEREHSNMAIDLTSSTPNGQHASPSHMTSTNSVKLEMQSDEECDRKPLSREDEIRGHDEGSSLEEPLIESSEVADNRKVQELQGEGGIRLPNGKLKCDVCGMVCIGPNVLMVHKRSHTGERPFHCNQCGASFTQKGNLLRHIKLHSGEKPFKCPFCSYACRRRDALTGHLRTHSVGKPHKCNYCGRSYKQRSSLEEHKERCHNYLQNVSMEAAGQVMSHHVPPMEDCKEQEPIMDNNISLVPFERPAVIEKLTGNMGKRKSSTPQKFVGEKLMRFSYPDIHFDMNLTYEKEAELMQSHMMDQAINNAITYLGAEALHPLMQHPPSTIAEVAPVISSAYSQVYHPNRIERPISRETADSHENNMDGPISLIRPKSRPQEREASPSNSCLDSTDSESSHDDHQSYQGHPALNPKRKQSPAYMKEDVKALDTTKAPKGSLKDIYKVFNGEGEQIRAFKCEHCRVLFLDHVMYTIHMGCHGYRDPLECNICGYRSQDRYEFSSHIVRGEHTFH
T2 sequence (Q9UJQ4 378-438 limits assumed): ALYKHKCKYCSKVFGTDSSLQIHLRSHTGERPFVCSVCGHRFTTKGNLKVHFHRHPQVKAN
T2 sequence (Q96SW2 whole entry, the tested form may be a part): as the sequence (Q96SW2 whole entry, the tested form may be a part) above
T2 sequence (Q16531 whole entry partner, the tested form may be a part): as the sequence (Q16531 whole entry partner, the tested form may be a part) above

Compound	TR-FRET-IKZF2 (Normalized to CC-885) (CRBN and Helios (IKZF2); [1])	TR-FRET-IKZF2 (Normalized to CC-885) (CRBN and Helios (IKZF2); [2])	TR-FRET-IKZF2 (Normalized to CC-885) (CRBN and Helios (IKZF2); [3])	GSPT1 GFP/RFP Relative Abundance (GSPT1; [4])	GSPT1 GFP/RFP Relative Abundance (GSPT1; [5])	GSPT1 GFP/RFP Relative Abundance (GSPT1; [6])	SALL4 ZNF1-2 GFP/RFP Relative Abundance (SALL4 ZNF1-2; [4])	SALL4 ZNF1-2 GFP/RFP Relative Abundance (SALL4 ZNF1-2; [5])	SALL4 ZNF1-2 GFP/RFP Relative Abundance (SALL4 ZNF1-2; [6])	IKZF2 GFP/RFP Relative Abundance (IKZF2; [4])	IKZF2 GFP/RFP Relative Abundance (IKZF2; [5])	IKZF2 GFP/RFP Relative Abundance (IKZF2; [6])	IKZF1 GFP/RFP Relative Abundance (IKZF1; [4])	IKZF1 GFP/RFP Relative Abundance (IKZF1; [5])	IKZF1 GFP/RFP Relative Abundance (IKZF1; [6])
COC(=O)CN(C)C1=CC(=O)N(C2CCC(=O)NC2=O)C1=O (stereo not drawn) [Compound 15, Methyl N-(1-(2,6-dioxopiperidin-3-yl)-2,5-dioxo-2,5-dihydro-1H-pyrrol-3-yl)-N-methylglycinate]	0.050	0.039	0.025	1.009	1.036	1.043	0.912	0.910	1.047	1.024	1.036	1.028	1.041	1.032	0.996
O=C1CCC(N2C(=O)C=C(Nc3ccc4cc[nH]c4c3)C2=O)C(=O)N1 (stereo not drawn) [Compound 37, 3-(3-((1H-indol-6-yl)amino)-2,5-dioxo-2,5-dihydro-1H-pyrrol-1-yl)piperidine-2,6-dione]	0.620	0.422	0.355	0.787	1.111	1.010	0.939	0.865	0.891	0.938	1.004	0.988	0.315	0.349	0.344
O=C1CCC(N2C(=O)C=C(Nc3ccc(Cc4ccccc4)cc3)C2=O)C(=O)N1 (stereo not drawn) [Compound 39, 3-(3-((4-benzylphenyl)amino)-2,5-dioxo-2,5-dihydro-1H-pyrrol-1-yl)piperidine-2,6-dione]	0.271	0.230	0.174	0.743	0.813	0.830	1.110	1.006	1.043	1.070	1.008	1.047	0.705	0.691	0.677
CN(C)C(=O)c1ccc(NC2=CC(=O)N(C3CCC(=O)NC3=O)C2=O)cc1 (stereo not drawn) [Compound 34, 4-((1-(2,6-dioxopiperidin-3-yl)-2,5-dioxo-2,5-dihydro-1H-pyrrol-3-yl)amino)-N,N-dimethylbenzamide]	0.077	0.064	0.059	0.867	0.821	0.878	0.940	0.944	0.943	0.981	1.018	0.950	1.042	0.984	0.904
Cc1ccc(NC(=O)NCc2ccccc2NC2=CC(=O)N(C3CCC(=O)NC3=O)C2=O)cc1Cl (stereo not drawn) [Compound 45, 1-(3-chloro-4-methylphenyl)-3-(2-((1-(2,6-dioxopiperidin-3-yl)-2,5-dioxo-2,5-dihydro-1H-pyrrol-3-yl)amino)benzyl)urea]	0.079	0.059	0.051	0.476	0.921	1.093	1.059	0.993	0.948	1.015	1.022	1.022	0.957	1.027	1.060
O=C1CCC(N2C(=O)C=C(Nc3cccc(-c4nnn[nH]4)c3)C2=O)C(=O)N1 (stereo not drawn) [Compound 23, 3-(3-((3-(1H-tetrazol-5-yl)phenyl)amino)-2,5-dioxo-2,5-dihydro-1H-pyrrol-1-yl)piperidine-2,6-dione]	0.326	0.259	0.196	0.976	0.936	0.953	0.922	0.979	0.981	1.013	1.016	1.015	0.866	1.044	0.756
CCOC(=O)c1cccc(NC2=CC(=O)N(C3CCC(=O)NC3=O)C2=O)c1 (stereo not drawn) [Compound 30, Ethyl 3-((1-(2,6-dioxopiperidin-3-yl)-2,5-dioxo-2,5-dihydro-1H-pyrrol-3-yl)amino)benzoate]	0.386	0.324	0.228	1.100	1.129	1.192	0.815	0.786	0.896	0.916	0.928	0.979	0.388	0.437	0.631
O=C1CCC(N2C(=O)C=C(Nc3nc[nH]n3)C2=O)C(=O)N1 (stereo not drawn) [Compound 18, 3-(3-((1H-1,2,4-triazol-3-yl)amino)-2,5-dioxo-2,5-dihydro-1H-pyrrol-1-yl)piperidine-2,6-dione]	0.062	0.018	0.024	0.880	0.650	0.498	0.967	0.999	0.904	1.055	0.992	0.990	0.943	0.833	0.847
